Experimental data published in paper PMC11382352 (Drug development research, 2019).
Values after ≈ are worked out from the molar mass of the structure shown. Where two headings read alike, the source gives them in different places.

Tested on: Mycobacterium tuberculosis H37Rv
Test: Microtiter dilution MIC assay in GAST-Fe and 7H9-based media
Format: cell-based
Settings: for MIC (Gast/Fe) Week 2: GAST-Fe medium pH 6.6, read after week 2; for MIC (Gast/Fe) Week 1: GAST-Fe medium pH 6.6, read after week 1; for MIC: Mycobacterium tuberculosis, H37RV

Row | Compound | MIC (Gast/Fe) Week 2 [µM] | further results
1 | COc1cccc(NCc2ccc(Oc3ccccn3)cc2)c1 [Compound 2c, 3-methoxy-N-(4-(pyridin-2-yloxy)benzyl) aniline] | 37 (≈ 11.3 µg/mL) | 
2 | Brc1cccc(NCc2ccc(Oc3ccccn3)cc2)c1 [Compound 2m, 3-bromo-N-(4-(pyridin-2-yloxy)benzyl) aniline] | 35 (≈ 12.4 µg/mL) | 
3 | Clc1cccc(NCc2ccc(Oc3ccccn3)cc2)c1 [Compound 2h, 3-chloro-N-(4-(pyridin-2-yloxy)benzyl) aniline] | 40 (≈ 12.4 µg/mL) | 
4 | Cc1ccc(NCc2ccc(Oc3ccccn3)cc2)cc1 [Compound 2d, 4-methyl-N-(4-(pyridin-2-yloxy)benzyl) aniline] |  | MIC (Gast/Fe) Week 1: 22 µM (≈ 6.39 µg/mL)
5 | Oc1cc(Cl)ccc1Oc1ccc(Cl)cc1Cl [Triclosan, 2,4,4׳- trichloro- 2׳- hydroxy diphenyl ether, reference compound] |  | MIC (pH 6.6, read-out: MIC (Gast/Fe) Week 1): 43 µM (≈ 12.5 µg/mL); MIC (pH 6.6, read-out: MIC (Gast/Fe) Week 2): 43 µM (≈ 12.5 µg/mL); MIC (read-out: MIC (7H9/ADC/Tween) Week 1): 22 µM (≈ 6.37 µg/mL); MIC (read-out: MIC (7H9/ADC/Tween) Week 2): 43 µM (≈ 12.5 µg/mL)
6 | Fc1ccc(NCc2ccc(Oc3ccccn3)cc2)cc1 [Compound 2j, 4-fluoro-N-(4-(pyridin-2-yloxy)benzyl) aniline] | 25 (≈ 7.36 µg/mL) | 
7 | Clc1ccccc1NCc1ccc(Oc2ccccn2)cc1 [Compound 2i, 2-chloro-N-(4-(pyridin-2-yloxy)benzyl) aniline] | 20 (≈ 6.22 µg/mL) | MIC (Gast/Fe) Week 1: 20 µM (≈ 6.22 µg/mL)
8 | Clc1ccc(NCc2ccc(Oc3ccccn3)cc2)cc1 [Compound 2g, 4-chloro-N-(4-(pyridin-2-yloxy)benzyl) aniline] | 40 (≈ 12.4 µg/mL) | 
9 | c1ccc(NCc2ccc(Oc3ccccn3)cc2)cc1 [Compound 2a, N-(4-(pyridin-2-yloxy)benzyl) aniline] | 37 (≈ 10.2 µg/mL) | 
